In US4920129A, “Anti-ulcerative imidazopyridine compounds” (Fujisawa Pharmaceutical Company, Ltd., priority 1987, dated 1990):

How the values were obtained:
stress ulcer = test: Inhibition on stress ulcer (water-bath immobilization); type: in vivo, Sprague-Dawley rats; conditions: 32 mg/kg, oral, just before immobilization; 7 hours; rats
Description: INHIBITION ON STRESS ULCER
Five Sprague-Dawley rats weighing about 200 g were used per group. Each animal was immobilized in a small cage and put in a water bath allowing to respire. The temperature of the water bath kept at 22° C. The test compound was administered orally just before the immobilization. Seven hours later, the animals were sacrificed and their stomachs were removed. The stomach was then fixed with 2% formalin. The area of ulcers was measured for each animal. The mean area (mm^2) in the medicated animals was compared with that in the control animals.

[1] = tested on: gastrin-stimulated acid secretion; test: Effect on gastrin-stimulated acid secretion in Heidenhain pouch dogs; type: in vivo; conditions: 3.2 mg/kg, oral, tetragastrin 10 μg/kg/hr infusion, gastric juice collected 3 hr after drug
Description: EFFECT ON GASTRIN-STIMULATED ACID SECRETION IN HEIDENHAIN POUCH DOGS
Dogs equipped with Heidenhain pouches were placed on tables and restrained minimally in pavlov slings. Gastrin(tetragastrin) in 0.9% saline was continuously infused through the cephalic vein at a dose of 10 μg/kg/hr over a 5- to 6-hr period in a volume of 0.1 ml/kg/min. After acid secretion had reached a plateau (usually within 2 hr), drug was given orally in a volume of 1 ml/kg. Gastric juice was collected at 15 min intervals for 1 hr before and for 3 hr after drug administration. The volume of each sample was determined, and an aliquot was titrated to pH 7.0 with 0.1M NaOH. Acid output was expressed as μEq H^+ /15 min. The effect of drug was described as percent drug-induced change in acid secretion.

C#CCc1c(C)nc2c(NCc3c(C)cccc3NC(=O)OC)cccn12 [(1), 8-(2-Methyl-6-methoxycarbonylaminobenzylamino)-3-(2-propynyl)-2-methylimidazo[1,2-a]pyridine]
Inhibition % (area of ulcers) (stress ulcer): 100% | Maximum inhibition % (acid secretion) [1]: 100%
